According to patent US9366682B2, “Use of stathmin as a biomarker of drug response to furazanobenzimidazoles” (BASILEA PHARMACEUTICA AG, priority 2011, dated 2016):

Legend:
Format in all cases: cell-based, human
[1] = system: MEXF 989 patient-derived melanoma cells; test: Colony outgrowth assay, patient-derived melanoma MEXF 989; conditions: for Response (sensitive/resistant): colony outgrowth, melanoma MEXF 989 (resistant model 2), by IC70 criteria
Method: (§1) Single cell suspensions of patient-derived tumour xenografts (maintained in nude mice) were prepared. For colony outgrowth assays, cells were plated in soft agar in 24-well plates according to the assay introduced by Hamburger & Salmon (Primary bioassay of human tumour stem cells, Science, 1977, 197:461-463). 2×10^4-6×10^4 cells in 0.2 mL medium containing 0.4% agar were plated out on a bottom layer of 0.75% agar. Test compounds were applied in 0.2 mL culture medium. Every 24-well plate contained untreated controls and samples in triplicates. Cultures were incubated at 37° C. and 7.5% CO2 for 5-28 days. 24 hours prior to analysis, vital colonies were stained with a solution of metabolizable tetrazolium salt (Alley M C et al, Life Sci. 1982, 31:3071-3078) and were counted with an automatic image analysis system (Omnicon 3600, Biosys GmbH).
(§2) Relative drug effects were expressed by the ratio of the mean number of colonies in the treated wells and the control wells. IC70-values were determined by plotting compound concentrations versus relative colony counts.

A549 NSCLC cells = test: Immunofluorescent staining of microtubules in cultured cells; conditions: for Microtubule phenotype: A549, 24 hours treatment, mitotic or G2/M arrested cells, anti-alpha-tubulin staining, BAL27862 50 nM, Compound B 80 nM, Compound C 20 nM; for Microtubule phenotype, combination treatment: colchicine
Method: (§3) A549 human non-small cell lung cancer (NSCLC, ATCC reference number CCL-185) cells, HeLa cervical cancer cells (ATCC reference number CCL-2) and SKBR3 breast carcinoma cells (ATCC reference number HTB-30) were seeded at densities of 50% on round microscope coverslips and cultured for 24 hours in RPMI-1640 containing 10% FCS (also referred to as FBS) at 37° C., 5% CO2. Compounds to be tested were dissolved in DMSO. The cell culture medium was replaced with medium containing the diluted compound(s) (paclitaxel, vinblastine, colchicine and nocodazole were purchased from Sigma-Aldrich) or vehicle. After treatment for the times indicated in the Brief Description of the Figures, coverslips were washed and cells were fixed in methanol/acetone (1:1) for 5 minutes at room temperature and subsequently incubated in blocking buffer (0.5% BSA and 0.1% TX-100 in PBS) for 30 minutes at room temperature. Specimens were then incubated with anti-alpha-tubulin antibody (Sigma, 1:2000) for 1 hour at room temperature in blocking buffer. After several washing steps cells were incubated with AlexaFluor-488 goat-anti-mouse IgG (Molecular Probes, 1:3000) for 1 hour at room temperature followed by several washing steps with blocking buffer. Specimens were then mounted with ProLong Gold antifade (Molecular Probes), sealed with nail polish and examined with a Leica immunofluorescence microscope. Images were captured with a cooled CCD-camera and processed by ImageJ software.

[2] = system: MEXF 1341 patient-derived melanoma cells; test: Colony outgrowth assay, patient-derived melanoma MEXF 1341; parameters: key to Response (sensitive/resistant): BAL27862-sensitive tumour cells were those that had IC70 values in the low nanomolar range; BAL27862-resistant tumour cells had IC70 values >600 nanomolar; conditions: for Response (sensitive/resistant): colony outgrowth, melanoma MEXF 1341, by IC70 criteria
Method: as §1, §2

[3] = system: GXF 97 patient-derived gastric tumour cells; test: Colony outgrowth assay, patient-derived gastric tumour GXF 97; parameters: key to Response (sensitive/resistant): BAL27862-sensitive tumour cells were those that had IC70 values in the low nanomolar range; BAL27862-resistant tumour cells had IC70 values >600 nanomolar; conditions: for Response (sensitive/resistant): colony outgrowth, Gastric GXF 97, by IC70 criteria
Method: as §1, §2

[4] = system: LXFE211 patient-derived lung cancer cells; test: Colony outgrowth assay, patient-derived lung cancer LXFE211; parameters: key to Response (sensitive/resistant): BAL27862-sensitive tumour cells were those that had IC70 values in the low nanomolar range; BAL27862-resistant tumour cells had IC70 values >600 nanomolar; conditions: for Response (sensitive/resistant): colony outgrowth, Lung LXFE211, by IC70 criteria
Method: as §1, §2

[5] = system: MEXF 276 patient-derived melanoma cells; test: Colony outgrowth assay, patient-derived melanoma MEXF 276; parameters: key to Response (sensitive/resistant): BAL27862-sensitive tumour cells were those that had IC70 values in the low nanomolar range; BAL27862-resistant tumour cells had IC70 values >600 nanomolar; conditions: for Response (sensitive/resistant): colony outgrowth, melanoma MEXF 276 (resistant model 1), by IC70 criteria
Method: as §1, §2

[6] = system: GXF 251 patient-derived gastric tumour cells; test: Colony outgrowth assay, patient-derived gastric tumour GXF 251; parameters: key to Response (sensitive/resistant): BAL27862-sensitive tumour cells were those that had IC70 values in the low nanomolar range; BAL27862-resistant tumour cells had IC70 values >600 nanomolar; conditions: for Response (sensitive/resistant): colony outgrowth, Gastric GXF 251, by IC70 criteria
Method: as §1, §2

[7] = system: SKBR3 breast cancer cells; test: Immunofluorescent staining of microtubules in cultured cells; conditions: SKBR3, 24 hours treatment with 50 nM, anti-alpha-tubulin staining
Method: as §3

[8] = system: HeLa cervical cancer cells; test: as above; conditions: 24 hours treatment with 50 nM, anti-alpha-tubulin staining
Method: as §3

[9] = system: LXFE397 patient-derived lung cancer cells; test: Colony outgrowth assay, patient-derived lung cancer LXFE397
Method: as §1, §2

Structure (SMILES)	Microtubule phenotype (A549 NSCLC cells)	Response (sensitive/resistant) [2]	Response (sensitive/resistant) [3]	Response (sensitive/resistant) [4]	Response (sensitive/resistant) [6]	also measured
CC(=O)O[C@H]1C(=O)[C@@]2(C)[C@H]([C@H](OC(=O)c3ccccc3)[C@]3(O)C[C@H](OC(=O)[C@H](O)[C@@H](NC(=O)c4ccccc4)c4ccccc4)C(C)=C1C3(C)C)[C@]1(OC(C)=O)CO[C@@H]1C[C@@H]2O [paclitaxel, reference compound]	mitotic microtubule phenotypes characteristic of these agents	resistant (BAL27862-resistant tumour cells had IC70 values >600 nanomolar)	resistant (BAL27862-resistant tumour cells had IC70 values >600 nanomolar)	esistant	resistant (BAL27862-resistant tumour cells had IC70 values >600 nanomolar)	Response (sensitive/resistant) [1]: resistant (BAL27862-resistant tumour cells had IC70 values >600 nanomolar); Response (sensitive/resistant) [5]: resistant (BAL27862-resistant tumour cells had IC70 values >600 nanomolar)
N#CCCNc1nonc1-c1nc2ccccc2n1CC(=O)c1ccc(N)nc1 [Compound C, 3-(4-{1-[2-(6-Amino-pyridin-3-yl)-2-oxo-ethyl]-1H-benzoimidazol-2-yl}-furazan-3-ylamino)-propionitrile]	highly reproducible and distinct microtubule phenotype					
CC[C@]1(O)C[C@@H]2CN(CCc3c([nH]c4ccccc34)[C@@](C(=O)OC)(c3cc4c(cc3OC)N(C)[C@H]3[C@@](O)(C(=O)OC)[C@H](OC(C)=O)[C@]5(CC)C=CCN6CC[C@]43[C@@H]65)C2)C1 [vinblastine, reference compound]	mitotic microtubule phenotypes characteristic of these agents	sensitive	sensitive	sensitive	sensitive	Response (sensitive/resistant) [1]: resistant (BAL27862-resistant tumour cells had IC70 values >600 nanomolar); Response (sensitive/resistant) [5]: sensitive
COc1cc2c(c(OC)c1OC)-c1ccc(OC)c(=O)cc1[C@@H](NC(C)=O)CC2 [colchicine, reference compound]	mitotic microtubule phenotypes characteristic of these agents					
N#CCCNc1nonc1-c1nc2ccccc2n1CC(=O)c1ccc(N)cc1 [BAL27862, 3-(4-{1-[2-(4-Amino-phenyl)-2-oxo-ethyl]-1H-benzoimidazol-2-yl}-furazan-3-ylamino)-propionitrile]	multiple dot-like structures	sensitive	resistant (BAL27862-resistant tumour cells had IC70 values >600 nanomolar)	sensitive	sensitive	IC70 ([1]; 70% growth inhibition versus controls, melanoma MEXF 989): >3.5 µM; Microtubule phenotype [7]: highly reproducible and distinct microtubule phenotype; Microtubule phenotype, combination treatment (A549 NSCLC cells; A549, 24 hours BAL27862 with the final 4 hours including vinblastine, paclitaxel or nocodazole): no impact on the observed microtubule phenotype; Microtubule phenotype (A549 NSCLC cells; listed as compound A): highly reproducible and distinct microtubule phenotype; Microtubule phenotype, combination treatment (A549 NSCLC cells; A549, 24 hours vinblastine, paclitaxel or nocodazole with the final 4 hours including BAL27862): disruption of the microtubule structures; Microtubule phenotype [8]: highly reproducible and distinct microtubule phenotype; IC70 ([2]; 70% growth inhibition versus controls, melanoma MEXF 1341): 0.025 µM; IC70 ([3]; 70% growth inhibition versus controls, Gastric GXF 97): >3.5 µM; IC70 ([9]; 70% growth inhibition versus controls, Lung LXFE397): >3.5 µM; Response (sensitive/resistant) ([9]; colony outgrowth, Lung LXFE397, by IC70 criteria): resistant (BAL27862-resistant tumour cells had IC70 values >600 nanomolar); IC70 ([4]; 70% growth inhibition versus controls, Lung LXFE211): 0.021 µM; IC70 ([5]; 70% growth inhibition versus controls, melanoma MEXF 276): >3.5 µM; IC70 ([6]; 70% growth inhibition versus controls, Gastric GXF 251): 0.485 µM
COC(=O)Nc1nc2ccc(C(=O)c3cccs3)cc2[nH]1 [nocodazole, reference compound]	mitotic microtubule phenotypes characteristic of these agents					
Nc1ccc(C(=O)Cn2c(-c3nonc3N)nc3ccccc32)cc1 [Compound B, 2-[2-(4-Amino-furazan-3-yl)-benzoimidazol-1-yl]-1-(4-amino-phenyl)-ethanone]	highly reproducible and distinct microtubule phenotype					
